PubChem BioAssay (NCI)
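GI50 = concentration required for 50% inhibition of growth. TGI marks complete inhibition of growth.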

Legend:
Assay in all cases: DTP human tumour cell line panel, 384-well format
T-47D breast = test system: T-47D breast
IGROV1 ovarian = test system: IGROV1 ovarian
HOP-92 NSCLC = test system: HOP-92 NSCLC
BT-549 breast = test system: BT-549 breast
NCI-H23 lung = test system: NCI-H23 lung
NCI-H226 lung = test system: NCI-H226 lung
UACC-62 melanoma = test system: UACC-62 melanoma
SF-295 CNS = test system: SF-295 CNS
U251 glioblastoma = test system: U251 glioblastoma
NCI-H522 lung = test system: NCI-H522 lung
OVCAR-3 ovarian = test system: OVCAR-3 ovarian
MDA-MB-468 breast = test system: MDA-MB-468 breast
NCI-H460 NSCLC = test system: NCI-H460 NSCLC
A549 NSCLC = test system: A549 NSCLC
HCC-2998 colon = test system: HCC-2998 colon
SW-620 colon = test system: SW-620 colon
SK-OV-3 ovarian = test system: SK-OV-3 ovarian
PC-3 prostate = test system: PC-3 prostate
MDA-MB-435 melanoma = test system: MDA-MB-435 melanoma
MDA-MB-231 breast = test system: MDA-MB-231 breast
HOP-62 NSCLC = test system: HOP-62 NSCLC
HCT-116 colon = test system: HCT-116 colon
OVCAR-4 ovarian = test system: OVCAR-4 ovarian
KM12 colon = test system: KM12 colon
OVCAR-8 ovarian = test system: OVCAR-8 ovarian
SK-MEL-2 melanoma = test system: SK-MEL-2 melanoma
RXF 393 renal = test system: RXF 393 renal
OVCAR-5 ovarian = test system: OVCAR-5 ovarian
UO-31 renal = test system: UO-31 renal
ACHN renal = test system: ACHN renal
SR leukemia = test system: SR leukemia
A498 renal = test system: A498 renal
SNB-19 CNS = test system: SNB-19 CNS
LOX IMVI melanoma = test system: LOX IMVI melanoma
786-0 renal = test system: 786-0 renal
CCRF-CEM leukemia = test system: CCRF-CEM leukemia
SF-268 CNS = test system: SF-268 CNS
CAKI-1 renal = test system: CAKI-1 renal
NCI/ADR-RES ovarian = test system: NCI/ADR-RES ovarian
UACC-257 melanoma = test system: UACC-257 melanoma
HL-60(TB) leukemia = test system: HL-60(TB) leukemia
RPMI-8226 leukemia = test system: RPMI-8226 leukemia
MOLT-4 leukemia = test system: MOLT-4 leukemia
SF-539 CNS = test system: SF-539 CNS
TK-10 renal = test system: TK-10 renal
MALME-3M melanoma = test system: MALME-3M melanoma
M14 melanoma = test system: M14 melanoma
DU-145 prostate = test system: DU-145 prostate
HCT-15 colon = test system: HCT-15 colon
HT29 colon = test system: HT29 colon
SK-MEL-5 melanoma = test system: SK-MEL-5 melanoma
SN12C renal = test system: SN12C renal
NCI-H322M lung = test system: NCI-H322M lung
COLO 205 colon = test system: COLO 205 colon
SK-MEL-28 melanoma = test system: SK-MEL-28 melanoma
K-562 leukemia = test system: K-562 leukemia
MCF7 breast = test system: MCF7 breast

`C=CC(=O)N1C[C@@H]2CCOc3c(Cl)c(-c4c(O)cccc4F)c(F)c4ncnc(c34)N2C[C@H]1C` showed a GI50 (T-47D breast) of 1890 nM, a TGI (T-47D breast) of 5470 nM and a GI50 (IGROV1 ovarian) of 1700 nM. It also gave a TGI (IGROV1 ovarian) of 4640 nM, a GI50 (HOP-92 NSCLC) of 2950 nM and a TGI (HOP-92 NSCLC) of 9360 nM. It also gave a GI50 (BT-549 breast) of 1260 nM, a TGI (BT-549 breast) of 2970 nM and a TGI (NCI-H23 lung) of 22.7 nM. It also gave a GI50 (NCI-H226 lung) of 2150 nM, a TGI (NCI-H226 lung) of 5780 nM and a GI50 (UACC-62 melanoma) of 1410 nM. It also gave a TGI (UACC-62 melanoma) of 5500 nM, a GI50 (SF-295 CNS) of 7480 nM and a TGI (SF-295 CNS) of 20300 nM. The GI50 (U251 glioblastoma) was 2430 nM, the TGI (U251 glioblastoma) was 7660 nM and the GI50 (NCI-H522 lung) was 1630 nM. The TGI (NCI-H522 lung) was 3540 nM, the GI50 (OVCAR-3 ovarian) was 1550 nM and the TGI (OVCAR-3 ovarian) was 3040 nM. The GI50 (MDA-MB-468 breast) was 1680 nM, the TGI (MDA-MB-468 breast) was 3620 nM and the GI50 (NCI-H460 NSCLC) was 2340 nM. It also gave a TGI (NCI-H460 NSCLC) of 5340 nM, a GI50 (A549 NSCLC) of 2240 nM and a TGI (A549 NSCLC) of 6750 nM. The GI50 (HCC-2998 colon) was 1570 nM, the TGI (HCC-2998 colon) was 3150 nM and the GI50 (SW-620 colon) was 2270 nM. The TGI (SW-620 colon) was 4070 nM, the GI50 (SK-OV-3 ovarian) was 2190 nM and the TGI (SK-OV-3 ovarian) was 8030 nM. It also gave a GI50 (PC-3 prostate) of 3040 nM, a TGI (PC-3 prostate) of 10600 nM and a GI50 (MDA-MB-435 melanoma) of 1910 nM. For the same molecule, the TGI (MDA-MB-435 melanoma) was 3960 nM, the GI50 (MDA-MB-231 breast) was 2610 nM and the TGI (MDA-MB-231 breast) was 8920 nM. The GI50 (HOP-62 NSCLC) was 30.9 nM, the TGI (HOP-62 NSCLC) was 4750 nM and the GI50 (HCT-116 colon) was 2200 nM. The TGI (HCT-116 colon) was 5950 nM, the GI50 (OVCAR-4 ovarian) was 1960 nM and the TGI (OVCAR-4 ovarian) was 4750 nM. For the same molecule, the GI50 (KM12 colon) was 1880 nM, the TGI (KM12 colon) was 4270 nM and the GI50 (OVCAR-8 ovarian) was 1640 nM. For the same molecule, the TGI (OVCAR-8 ovarian) was 3060 nM, the GI50 (SK-MEL-2 melanoma) was 1220 nM and the TGI (SK-MEL-2 melanoma) was 2630 nM. It also gave a GI50 (RXF 393 renal) of 60.1 nM, a TGI (RXF 393 renal) of 407 nM and a GI50 (OVCAR-5 ovarian) of 4710 nM. The TGI (OVCAR-5 ovarian) was 17000 nM, the GI50 (UO-31 renal) was 1920 nM and the TGI (UO-31 renal) was 9160 nM. The GI50 (ACHN renal) was 2580 nM, the TGI (ACHN renal) was 7930 nM and the GI50 (SR leukemia) was 1070 nM. For the same molecule, the TGI (SR leukemia) was 2280 nM, the GI50 (A498 renal) was 2270 nM and the TGI (A498 renal) was 8260 nM. For the same molecule, the GI50 (SNB-19 CNS) was 3760 nM, the TGI (SNB-19 CNS) was 16000 nM and the GI50 (LOX IMVI melanoma) was 4180 nM. For the same molecule, the TGI (LOX IMVI melanoma) was 11400 nM, the GI50 ([…]-0 renal) was 1730 nM and the TGI (786-0 renal) was 3910 nM. It also gave a GI50 (CCRF-CEM leukemia) of 1600 nM, a TGI (CCRF-CEM leukemia) of 3050 nM and a GI50 (SF-268 CNS) of 2100 nM. For the same molecule, the TGI (SF-268 CNS) was 4860 nM, the GI50 (CAKI-1 renal) was 1560 nM and the TGI (CAKI-1 renal) was 6430 nM. For the same molecule, the GI50 (NCI/ADR-RES ovarian) was 1760 nM, the TGI (NCI/ADR-RES ovarian) was 3530 nM and the GI50 (UACC-257 melanoma) was 1290 nM. For the same molecule, the TGI (UACC-257 melanoma) was 6420 nM, the GI50 (HL-60(TB) leukemia) was 1290 nM and the TGI (HL-60(TB) leukemia) was 2620 nM. The GI50 (RPMI-8226 leukemia) was 232 nM, the TGI (RPMI-8226 leukemia) was 1280 nM and the GI50 (MOLT-4 leukemia) was 1160 nM. For the same molecule, the TGI (MOLT-4 leukemia) was 2400 nM, the GI50 (SF-539 CNS) was 1800 nM and the TGI (SF-539 CNS) was 3450 nM. The GI50 (TK-10 renal) was 2400 nM, the TGI (TK-10 renal) was 10700 nM and the GI50 (MALME-3M melanoma) was 1930 nM. For the same molecule, the TGI (MALME-3M melanoma) was 7880 nM, the GI50 (M14 melanoma) was 2620 nM and the TGI (M14 melanoma) was 10100 nM. It also gave a GI50 (DU-145 prostate) of 1950 nM, a TGI (DU-145 prostate) of 5120 nM and a GI50 (HCT-15 colon) of 2630 nM. It also gave a TGI (HCT-15 colon) of 10600 nM, a GI50 (HT29 colon) of 2540 nM and a TGI (HT29 colon) of 6840 nM. It also gave a GI50 (SK-MEL-5 melanoma) of 1620 nM, a TGI (SK-MEL-5 melanoma) of 3410 nM and a GI50 (SN12C renal) of 1960 nM. For the same molecule, the TGI (SN12C renal) was 4230 nM, the GI50 (NCI-H322M lung) was 6660 nM and the TGI (NCI-H322M lung) was 19400 nM. The GI50 (COLO 205 colon) was 2010 nM, the TGI (COLO 205 colon) was 4520 nM and the GI50 (SK-MEL-28 melanoma) was 2360 nM. For the same molecule, the TGI (SK-MEL-28 melanoma) was 8430 nM, the GI50 (K-562 leukemia) was 1740 nM and the TGI (K-562 leukemia) was 3680 nM. The GI50 (MCF7 breast) was 3100 nM and the TGI (MCF7 breast) was 11600 nM.
